Our source for the IC50 values is patent publication US11679108B2, “Aromatic heterocyclic compound, and pharmaceutical composition and use thereof” (GUANGZHOU HENOVCOM BIOSCIENCE CO., LTD., priority 2018, dated 2023).

pIC50: −log10 of the molar value.

The target in one experiment is ATX (Homo sapiens, UniProt Q13822). As to the kind of experiment: Analysis in vitro: LPC was used as substrate for screening enzyme activity (Amplex Red fluorescence). Format: biochemical. The conditions noted are these: inhibitory activity against ATX, with LPC as substrate. The gist of the method:
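ATX lysoPLD activity was measured by coupled detection: LPC hydrolysis releases choline, which choline oxidase/HRP convert to an Amplex Red fluorescent signal (ex 530/em 590 nm). The enzyme mix (2 ng/μl ATX, 2 U/ml HRP, 0.2 U/ml choline oxidase) was combined with the substrate mix ([…], 400 μM Amplex Red) and 10-point threefold compound dilutions for 30 min. IC50 was derived from the inhibition ratio.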

Another experiment has as its target T1, ATX in human plasma (Homo sapiens, UniProt Q13822).
T1 construct: blank plasma was derived from at least 6 individual people; from tissue; host or cells: human plasma (pooled from at least 6 individuals)
Nature of the experiment: Analysis in vitro: detection of LPA in human plasma for screening activity (LPA 18:2 by LC/MS/MS). The experiment is classed as biochemical. As to conditions: incubated 2 hours at 37° C., LPA 18:2 detected by LC/MS/MS. The method, boiled down:
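Compounds at 0 to 10 μM were incubated for 2 h at 37° C. under 5% CO2 in pooled human plasma (≥6 donors), with endogenous LPC acting as substrate. LPA 18:2 was quantified by LC/MS/MS with an LPA 17:0 internal standard after methanol precipitation. IC50 values came from residual activity relative to compound-free plasma across 8 points of a 3-fold dilution series.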

The term pIC50 denotes the negative decadic logarithm of the IC50, by convention in mol/L. Higher therefore signals a low IC50. In the case of `CCc1nc2sc(N3CCC[C@@H](N(C)CC(=O)N4CC(O)C4)C3)nn2c1N(C)c1nc(-c2ccc(F)cc2)c(C#N)s1` [Example 23, (R)-2-{[6-ethyl-2-(3-((2-(3-hydroxyazetidin-1-yl)-2-oxoethyl)(methyl)amino)piperidin-1-yl)imidazo[2,1-b][1,3,4]thiadiazol-5-yl](methyl)amino}-4-(4-fluorophenyl)thiazole-5-carbonitrile], the pIC50 on ATX and against ATX in human plasma was 6.30 to 7.00 each time.
`CCc1nc2sc(N3CCC[C@H](N(C)CC(=O)N4CC(O)C4)C3)nn2c1N(C)c1nc(-c2ccc(F)cc2)c(C#N)s1` [Example 24, (S)-2-{[6-ethyl-2-(3-((2-(3-hydroxyazetidin-1-yl)-2-oxoethyl)(methyl)amino)piperidin-1-yl)imidazo[2,1-b][1,3,4]thiadiazol-5-yl](methyl)amino}-4-(4-fluorophenyl)thiazole-5-carbonitrile]: the pIC50 against ATX and on ATX in human plasma was 7.00 to 11.00 throughout.
For `CCc1nc2sc(N3CC[C@@H](N(C)C(=O)N4CC(O)C4)C3)nn2c1N(C)c1nc(-c2ccc(F)cc2)c(C#N)s1` [Example 36, (R)—N-{1-[5-((5-cyano-4-(4-fluorophenyl)thiazol-2-yl)(methyl)amino)-6-ethylimidazo[2,1-b][1,3,4]thiadiazol-2-yl]pyrrolidin-3-yl}-3-hydroxy-N-methylazetidine-1-carboxamide], the pIC50 on ATX is 7.00 to 11.00; on ATX in human plasma it was 6.30 to 7.00.
The like results for `CCc1nc2sc(N3CC[C@H](N(C)C(=O)N4CC(O)C4)C3)nn2c1N(C)c1nc(-c2ccc(F)cc2)c(C#N)s1` [Example 37, (S)—N-{1-[5-((5-cyano-4-(4-fluorophenyl)thiazol-2-yl)(methyl)amino)-6-ethylimidazo[2,1-b][1,3,4]thiadiazol-2-yl]pyrrolidin-3-yl}-3-hydroxy-N-methylazetidine-1-carboxamide] were, in that order, 7.00 to 11.00 and 6.30 to 7.00.
The like results for `CCc1nc2sc(N3CC[C@H](N(C)CC(=O)N4CC(F)C4)C3)nn2c1N(C)c1nc(-c2ccc(F)cc2)c(C#N)s1` [Example 38, (S)-2-{[6-ethyl-2-(3-((2-(3-fluoroazetidin-1-yl)-2-oxoethyl)(methyl)amino)pyrrolidin-1-yl)imidazo[2,1-b][1,3,4]thiadiazol-5-yl](methyl)amino}-4-(4-fluorophenyl)thiazole-5-carbonitrile] were, in that order, 7.00 to 11.00 and 6.30 to 7.00.
The like results for `CCc1nc2sc(N3CC[C@H](N(C)CC(=O)N4CCOCC4)C3)nn2c1N(C)c1nc(-c2ccc(F)cc2)c(C#N)s1` [Example 41, (S)-2-{[6-ethyl-2-(3-(methyl(2-morpholino-2-oxoethyl)amino)pyrrolidin-1-yl)imidazo[2,1-b][1,3,4]thiadiazol-5-yl](methyl)amino}-4-(4-fluorophenyl)thiazole-5-carbonitrile] were, in that order, 7.00 to 11.00 and 6.30 to 7.00.
As for `CCc1nc2sc(N3CC[C@H](N(C)CC(=O)N4CC(C(=O)O)C4)C3)nn2c1N(C)c1nc(-c2ccc(F)cc2)c(C#N)s1` [Example 45, (5)-1-{2-[(1-(5-((5-cyano-4-(4-fluorophenyl)thiazol-2-yl)(methyl)amino)-6-ethylimidazo[2,1-b][1,3,4]thiadiazol-2-yl}pyrrolidin-3-yl)(methyl)amino]acetyl}azetidine-3-carboxylic acid], the figures for the pIC50 against ATX and against ATX in human plasma were 7.00 to 11.00 and 6.30 to 7.00, respectively.
Taken in the same sequence, the figures for `CCc1nc2sc(N3CC[C@H](N(C)CC(=O)N4CC(C#N)C4)C3)nn2c1N(C)c1nc(-c2ccc(F)cc2)c(C#N)s1` [Example 47, (S)-2-{[2-(3-((2-(3-cyanoazetidin-1-yl)-2-oxoethyl)(methyl)amino)pyrrolidin-1-yl)-6-ethylimidazo[2,1-b][1,3,4]thiadiazol-5-yl](methyl)amino}-4-(4-fluorophenyl)-thiazole-5-carbonitrile] were 7.00 to 11.00 and 7.00 to 11.00.
